Measurements from PMC10139140, “Synthesis of Novel 2-(Cyclopentylamino)thiazol-4(5H)-one Derivatives with Potential Anticancer, Antioxidant, and 11β-HSD Inhibitory Activities” (International Journal of Molecular Sciences, 2023).
Entries after “also recorded” stand apart in the source; their conditions may differ.

What was measured:
[1] = test system: U-118 MG cells; assay: Reactive oxygen species level (dihydroethidium probe), U-118 MG; assay type: cell-based; conditions: 500 µM, 72 h
Description: (§1) The BJ (CRL-2522), Caco-2 (HTB-37), PANC-1 (CRL-1469), U-118 MG (HTB-15), SK-MEL-30 (ACC 151), and MDA-MB-231 (HTB-26) cell lines were purchased from ATCC (Manassas, VA, USA) or DSMZ (Braunschweig, GERMANY). Cells were cultured in accordance with manufacturers' recommendations in a DMEM, MEM, or RPMI-1640 (Sigma, Saint Louis, MO, USA; Gibco, Waltham, MA, USA), supplemented with 10% FBS, except for Caco-2 (20%) (Thermo Fisher Scientific, Waltham, MA, USA) and 1% antibiotic mix solution (penicillin, streptomycin; Thermo Fisher Scientific, Waltham, MA, USA) in a humidified atmosphere with 5% CO2 at 37 °C. All cell lines were cultured in T75 cell culture flasks or cell culture dishes to reach 80–90% confluency and seeded at a standard density of 5 × 10^3 cells/0.32 cm^2, except for BJ cells at 2 × 10^3 cells/0.32 cm^2.
(§2) The assay was performed following previously reported method. The cells (BJ, Caco-2, PANC-1, U-118 MG, SK-MEL-30, and MDA-MB-231) were seeded at an established density into 96-well black plates. Measurement of intracellular superoxide, nitric oxide, and free thiol levels were assessed with the use of fluorogenic probes: dihydroethidium (Cayman Chemical, Ann Arbor, MI, USA, #12013), DAF-2 diacetate (Cayman Chemical, Ann Arbor, MI, USA, #85165), and Thiol Tracker Violet (Thermo Scientific, Waltham, MA, USA, #T10095). After compound treatment (72 h), the cells were probed at a final concentration of 5 µM each for 15 min at 37 °C. Quantifications were taken with a BioTek–Synergy H1 microplate reader, and the results are presented as mean values + SD.

[2] = test system: Caco-2 cells; assay: Reactive oxygen species level (dihydroethidium probe), Caco-2; assay type: cell-based, human; conditions: Caco-2, 500 µM, 72 h
Description: as §1, §2

[3] = test system: BJ cells; assay: Reactive nitrogen species level (DAF-2 diacetate probe), BJ; assay type: cell-based; conditions: 500 µM, 72 h
Description: as §1
as §2, with “The cells (BJ, Caco-2, PANC-1, U-118 MG, SK-MEL-30, and MDA-MB-231) were seeded at an established density into 96-well black plates.” left out, “After compound treatment (72 h), the cells were probed at a final concentration of 5 µM each for 15 min at 37 °C.” left out

[4] = test system: MDA-MB-231 cells; assay: Reactive oxygen species level (dihydroethidium probe), MDA-MB-231; assay type: cell-based, human; conditions: MDA-MB-231, 500 µM, 72 h
Description: as §1, §2

[5] = test system: BJ cells; assay: Reactive oxygen species level (dihydroethidium probe), BJ; assay type: cell-based; conditions: 500 µM, 72 h
Description: as §1, §2

[6] = test system: U-118 MG cells; assay: Reactive nitrogen species level (DAF-2 diacetate probe), U-118 MG; assay type: cell-based; conditions: 500 µM, 72 h
Description: as §1, §2

[7] = test system: PANC-1 cells; assay: Reactive nitrogen species level (DAF-2 diacetate probe), PANC-1; assay type: cell-based, human; conditions: PANC-1, 500 µM, 72 h
Description: as §1
as §2, with “The cells (BJ, Caco-2, PANC-1, U-118 MG, SK-MEL-30, and MDA-MB-231) were seeded at an established density into 96-well black plates.” left out, “After compound treatment (72 h), the cells were probed at a final concentration of 5 µM each for 15 min at 37 °C.” left out

[8] = test system: all cell lines tested (BJ, Caco-2, PANC-1, U-118 MG, SK-MEL-30, MDA-MB-231); assay: Reduced glutathione level (Thiol Tracker Violet probe), all cell lines tested; assay type: cell-based; conditions: 500 µM, 72 h
Description: as §1
as §2, with “The cells (BJ, Caco-2, PANC-1, U-118 MG, SK-MEL-30, and MDA-MB-231) were seeded at an established density into 96-well black plates.” left out, “After compound treatment (72 h), the cells were probed at a final concentration of 5 µM each for 15 min at 37 °C.” left out

[9] = test system: MDA-MB-231 cells; assay: Reactive nitrogen species level (DAF-2 diacetate probe), MDA-MB-231; assay type: cell-based, human; conditions: MDA-MB-231, 500 µM, 72 h
Description: as §1
as §2, with “The cells (BJ, Caco-2, PANC-1, U-118 MG, SK-MEL-30, and MDA-MB-231) were seeded at an established density into 96-well black plates.” left out, “After compound treatment (72 h), the cells were probed at a final concentration of 5 µM each for 15 min at 37 °C.” left out

Row | Compound | level of reactive oxygen species (ROS) [1] | level of reactive oxygen species (ROS) [2] | level of reactive oxygen species (ROS) [4] | level of reactive oxygen species (ROS) [5] | level of reactive nitrogen species (RNS) [6] | also measured
1 | CCC1SC(NC2CCCC2)=NC1=O (centres unmarked) [Compound 3b, 2-(cyclopentylamino)-5-ethylthiazol-4(5H)-one] | high increase | high increase |  |  |  | level of reactive nitrogen species (RNS) [3]: increase
2 | O=C1N=C(NC2CCCC2)SC12CCC2 [Compound 3i, 6-(cyclopentylamino)-5-thia-7-azaspiro[3.4]oct-6-en-8-one] | high increase | high increase | increase | increase |  | 
3 | CCCC1SC(NC2CCCC2)=NC1=O (centres unmarked) [Compound 3c, 2-(cyclopentylamino)-5-propylthiazol-4(5H)-one] |  | high increase |  |  |  | 
4 | CC(C)C1SC(NC2CCCC2)=NC1=O (centres unmarked) [Compound 3d, 2-(cyclopentylamino)-5-isopropylthiazol-4(5H)-one] |  |  |  |  | increase | 
5 | CC1(C)SC(NC2CCCC2)=NC1=O [Compound 3e, 2-(cyclopentylamino)-5,5-dimethylthiazol-4(5H)-one] | high increase | high increase |  |  |  | level of reactive nitrogen species (RNS) [7]: increase
6 | O=C1N=C(NC2CCCC2)SC12CCCCC2 [Compound 3h, 2-(cyclopentylamino)-1-thia-3-azaspiro[4.5]dec-2-en-4-one] | high increase |  | increase | increase | increase | 
7 | O=C1N=C(NC2CCCC2)SC1c1ccc(Br)cc1 (centres unmarked) [Compound 3g, 2-(cyclopentylamino)-5-(4-bromophenyl)thiazol-4(5H)-one] |  | high increase | increase | increase |  | level of reduced glutathione [8]: low level; also recorded: especially strong reduction
8 | CC1SC(NC2CCCC2)=NC1=O (centres unmarked) [Compound 3a, 2-(cyclopentylamino)-5-methylthiazol-4(5H)-one] | high increase |  |  |  | increase | level of reactive nitrogen species (RNS) [9]: increase
